# Measured values published in PMC11594329, “Development of LAT1-Selective Nuclear Medicine Therapeutics Using Astatine-211” (International Journal of Molecular Sciences, 2024).
# Legend:
# PANC-1 tumor model = test: Tissue distribution in nude mice (PANC-1 tumor model); format: in vivo, BALB/c nu/nu mice; details: nude mice (PANC-1 tumor model)
# Experimental: BALB/c nu/nu mice (male, 5 weeks old) were purchased from Japan SLC (Shizuoka, Japan) and subcutaneously transplanted at a density of 1 × 10^7 cells/mouse. PANC-1 cells that reached the logarithmic growth phase were transplanted subcutaneously by mixing a 1 × 10^8 cells/mL cell suspension with an equivalent volume of Matrigel (Corning, Corning, NY, USA) to obtain 1 × 10^7 cells per mouse. Experiments were performed after the size of the transplanted tumor had exceeded 50 mm^3. The doses in the distribution experiments were as follows: ^211At-AAMT-OH-L (0.501 ± 0.011 MBq/mouse, 19.91 ± 0.59 g, n = 3) and ^211At-AAMT-O-Me-L (0.384 ± 0.003 MBq/mouse, 19.18 ± 0.38 g, n = 6 for Table 3), ^211At-AAMT-O-Me-L (158.10 ± 2.94 kBq/mouse, 19.27 ± 0.64 g, n = 6) and ^211At-AAMT-O-Me-D (135.08 ± 2.35 kBq/mouse, 18.64 ± 0.97 g, n = 6), ^211At-AAMT-O-Et-L (0.682 ± 0.011 MBq/mouse, 20.25 ± 1.41 g, n = 6), ^211At-AAMT-O-Pr-L (0.927 ± 0.020 MBq/mouse, 21.74 ± 0.37 g, n = 6).
# [1] = Tissue distribution in ICR mice (normal animals); format: in vivo
# Description: (§1) ICR mice (male, 5 weeks old) were purchased from Japan SLC (Shizuoka, Japan) and acclimated for one week prior to use. The doses in the distribution experiments were as follows: ^211At-AAMT-O-Me-L (0.407 ± 0.005 MBq/mouse, 31.64 ± 0.76 g, n = 6), ^211At-AAMT-O-Me-D (0.351 ± 0.004 MBq/mouse, 31.44 ± 0.94 g, n = 6), ^211At-AAMT-O-Et-L (0.685 ± 0.010 MBq/mouse, 24.14 ± 3.31 g, n = 6), ^211At-AAMT-O-Pr-L (1.09 ± 0.06 MBq/mouse, 26.33 ± 0.39 g, n = 6)
# [2] = Urinary and fecal excretion in ICR mice; format: in vivo
# Experimental: Urinary excretion levels were also examined (Supplementary Table S1). Comparing the D-isomer and L isomer of ^211At-AAMT-O-Me from ICR mice, the D-isomer; 24.84 ± 13.03% ID, L-isomer; 33.69 ± 1.26% ID at 1 h after injection. D-isomer; 71.36 ± 4.67% ID, L-isomer; 23.99 ± 2.40% ID at 3 h after injection. From PANC-1 tumor bearing mice, D-isomer; 35.24 ± 8.70% ID, L-isomer; 20.40 ± 0.76% ID at 1 h after injection. D-isomer; 47.38 ± 3.19% ID, L-isomer; 3.23 ± 0.67% ID at 3 h after injection. In tumor-bearing models, the amount of excretion was smaller than that in normal mice. We have already reported that, in the presence of target cancer tissue for administered drugs, retention in the cancer tissue results in reduced excretion compared with normal animals. […] The same was also observed for feces, but very little was excreted in the feces. The results were as follows: from ICR mice, D-isomer; 0.06 ± 0.03% ID, L-isomer; 0.004 ± 0.003% ID at 1 h after injection. D-isomer; 0.02 ± 0.01% ID, L-isomer; 0.02 ± 0.01% ID at 3 h after injection. From PANC-1 tumor bearing mice, D-isomer; 0.25 ± 0.12% ID, L-isomer; 0.002 ± 0.001% ID at 1 h after injection. D-isomer; 0.75 ± 0.46% ID; L-isomer; 0.07 ± 0.03% ID at 3 h after injection.
# as §1
structure (smiles),measurement,setting,value
COc1ccc(C[C@@](C)(N)C(=O)O)cc1[211At] [^211At-AAMT-O-Me-D],"Tissue distribution, Bladder",PANC-1 tumor model; 1 h after injection,1.76 ± 1.64 %ID/g
same,"Tissue distribution, Blood",PANC-1 tumor model; 1 h after injection,3.52 ± 1.89 %ID/g
same,"Tissue distribution, Bone",PANC-1 tumor model; 1 h after injection,0.30 ± 0.12 %ID/g
same,"Tissue distribution, Brain",PANC-1 tumor model; 1 h after injection,0.15 ± 0.01 %ID/g
same,"Tissue distribution, Cecum",PANC-1 tumor model; 1 h after injection,2.35 ± 1.73 %ID/g
same,"Tissue distribution, Colon",PANC-1 tumor model; 1 h after injection,0.85 ± 0.49 %ID/g
same,"Tissue distribution, Heart",PANC-1 tumor model; 1 h after injection,0.53 ± 0.08 %ID/g
same,"Tissue distribution, Kidney",PANC-1 tumor model; 1 h after injection,1.40 ± 0.56 %ID/g
same,"Tissue distribution, Liver",PANC-1 tumor model; 1 h after injection,3.09 ± 0.39 %ID/g
same,"Tissue distribution, Lung",PANC-1 tumor model; 1 h after injection,2.24 ± 0.89 %ID/g
same,"Tissue distribution, Pancreas",PANC-1 tumor model; 1 h after injection,0.61 ± 0.44 %ID/g
same,"Tissue distribution, Salivary glands",PANC-1 tumor model; 1 h after injection,0.30 ± 0.10 %ID/g
same,"Tissue distribution, Small intestine",PANC-1 tumor model; 1 h after injection,2.05 ± 0.81 %ID/g
same,"Tissue distribution, Spleen",PANC-1 tumor model; 1 h after injection,1.70 ± 0.74 %ID/g
same,"Tissue distribution, Stomach",PANC-1 tumor model; 1 h after injection,1.43 ± 0.94 %ID/g
same,"Tissue distribution, Testis",PANC-1 tumor model; 1 h after injection,1.05 ± 0.77 %ID/g
same,"Tissue distribution, Thyroid",PANC-1 tumor model; 1 h after injection,0.14 ± 0.04 %ID/g
same,"Tissue distribution, Tumor",PANC-1 tumor model; 1 h after injection,3.25 ± 1.39 %ID/g
same,"Tissue distribution, Bladder",PANC-1 tumor model; 3 h after injection,1.04 ± 0.97 %ID/g
same,"Tissue distribution, Blood",PANC-1 tumor model; 3 h after injection,1.92 ± 1.16 %ID/g
same,"Tissue distribution, Bone",PANC-1 tumor model; 3 h after injection,0.26 ± 0.12 %ID/g
same,"Tissue distribution, Brain",PANC-1 tumor model; 3 h after injection,0.10 ± 0.03 %ID/g
same,"Tissue distribution, Cecum",PANC-1 tumor model; 3 h after injection,1.32 ± 0.96 %ID/g
same,"Tissue distribution, Colon",PANC-1 tumor model; 3 h after injection,0.40 ± 0.25 %ID/g
same,"Tissue distribution, Heart",PANC-1 tumor model; 3 h after injection,0.37 ± 0.03 %ID/g
same,"Tissue distribution, Kidney",PANC-1 tumor model; 3 h after injection,1.54 ± 0.86 %ID/g
same,"Tissue distribution, Liver",PANC-1 tumor model; 3 h after injection,2.60 ± 0.07 %ID/g
same,"Tissue distribution, Lung",PANC-1 tumor model; 3 h after injection,1.27 ± 0.40 %ID/g
same,"Tissue distribution, Pancreas",PANC-1 tumor model; 3 h after injection,0.48 ± 0.35 %ID/g
same,"Tissue distribution, Salivary glands",PANC-1 tumor model; 3 h after injection,0.33 ± 0.13 %ID/g
same,"Tissue distribution, Small intestine",PANC-1 tumor model; 3 h after injection,1.48 ± 0.37 %ID/g
same,"Tissue distribution, Spleen",PANC-1 tumor model; 3 h after injection,1.81 ± 1.19 %ID/g
same,"Tissue distribution, Stomach",PANC-1 tumor model; 3 h after injection,1.29 ± 0.77 %ID/g
same,"Tissue distribution, Testis",PANC-1 tumor model; 3 h after injection,1.64 ± 1.26 %ID/g
same,"Tissue distribution, Thyroid",PANC-1 tumor model; 3 h after injection,0.14 ± 0.06 %ID/g
same,"Tissue distribution, Tumor",PANC-1 tumor model; 3 h after injection,3.84 ± 2.10 %ID/g
same,"Tissue distribution, Bladder",[1]; 1 h after injection,10.62 ± 8.22 %ID/g
same,"Tissue distribution, Blood",[1]; 1 h after injection,1.90 ± 0.57 %ID/g
same,"Tissue distribution, Bone",[1]; 1 h after injection,0.93 ± 0.35 %ID/g
same,"Tissue distribution, Brain",[1]; 1 h after injection,0.15 ± 0.01 %ID/g
same,"Tissue distribution, Cecum",[1]; 1 h after injection,0.47 ± 0.19 %ID/g
same,"Tissue distribution, Colon",[1]; 1 h after injection,2.54 ± 1.55 %ID/g
same,"Tissue distribution, Heart",[1]; 1 h after injection,3.20 ± 1.26 %ID/g
same,"Tissue distribution, Kidney",[1]; 1 h after injection,1.48 ± 0.39 %ID/g
same,"Tissue distribution, Liver",[1]; 1 h after injection,0.58 ± 0.11 %ID/g
same,"Tissue distribution, Lung",[1]; 1 h after injection,2.84 ± 1.11 %ID/g
same,"Tissue distribution, Pancreas",[1]; 1 h after injection,2.38 ± 1.36 %ID/g
same,"Tissue distribution, Salivary glands",[1]; 1 h after injection,4.67 ± 1.03 %ID/g
same,"Tissue distribution, Small intestine",[1]; 1 h after injection,2.66 ± 1.23 %ID/g
same,"Tissue distribution, Spleen",[1]; 1 h after injection,2.92 ± 1.49 %ID/g
same,"Tissue distribution, Stomach",[1]; 1 h after injection,6.34 ± 2.74 %ID/g
same,"Tissue distribution, Testis",[1]; 1 h after injection,1.84 ± 0.23 %ID/g
same,"Tissue distribution, Thymus",[1]; 1 h after injection,1.89 ± 0.90 %ID/g
same,"Tissue distribution, Thyroid",[1]; 1 h after injection,8.06 ± 3.56 %ID/g
same,"Tissue distribution, Bladder",[1]; 3 h after injection,0.19 ± 0.11 %ID/g
same,"Tissue distribution, Blood",[1]; 3 h after injection,0.38 ± 0.16 %ID/g
same,"Tissue distribution, Bone",[1]; 3 h after injection,0.28 ± 0.11 %ID/g
same,"Tissue distribution, Brain",[1]; 3 h after injection,0.04 ± 0.00 %ID/g
same,"Tissue distribution, Cecum",[1]; 3 h after injection,0.50 ± 0.23 %ID/g
same,"Tissue distribution, Colon",[1]; 3 h after injection,0.95 ± 0.59 %ID/g
same,"Tissue distribution, Heart",[1]; 3 h after injection,0.43 ± 0.20 %ID/g
same,"Tissue distribution, Kidney",[1]; 3 h after injection,0.73 ± 0.15 %ID/g
same,"Tissue distribution, Liver",[1]; 3 h after injection,1.34 ± 0.47 %ID/g
same,"Tissue distribution, Lung",[1]; 3 h after injection,0.69 ± 0.28 %ID/g
same,"Tissue distribution, Pancreas",[1]; 3 h after injection,0.42 ± 0.28 %ID/g
same,"Tissue distribution, Salivary glands",[1]; 3 h after injection,0.96 ± 0.16 %ID/g
same,"Tissue distribution, Small intestine",[1]; 3 h after injection,5.33 ± 2.18 %ID/g
same,"Tissue distribution, Spleen",[1]; 3 h after injection,0.42 ± 0.14 %ID/g
same,"Tissue distribution, Stomach",[1]; 3 h after injection,8.08 ± 3.50 %ID/g
same,"Tissue distribution, Testis",[1]; 3 h after injection,0.31 ± 0.02 %ID/g
same,"Tissue distribution, Thymus",[1]; 3 h after injection,0.18 ± 0.06 %ID/g
same,"Tissue distribution, Thyroid",[1]; 3 h after injection,0.42 ± 0.20 %ID/g
same,Excretion in feces,[2]; 1 h after injection,0.06 ± 0.03 % ID
same,Urinary excretion,[2]; 1 h after injection,24.84 ± 13.03 % ID
same,Excretion in feces,[2]; 3 h after injection,0.02 ± 0.01 % ID
same,Urinary excretion,[2]; 3 h after injection,71.36 ± 4.67 % ID
same,Urinary content,[2]; after 3 h,exceeded 70%
